Patent publication US7939467B2, “4-(3-aminobenzoyl)-1-ethylpyrazoles and their use as herbicides” (Bayer CropScience AG, priority 2007, dated 2011)

Key:
Assay in all cases: Herbicidal action against harmful plants, greenhouse pot test (comparative tables)
Type in all cases: in vivo
Matricaria inodora = details: 320 g a.i./ha; scored 3-4 weeks after treatment; comparative table 1
Excerpt: (§1) Seeds or rhizome pieces of mono- and dicotyledonous harmful plants are placed in sandy loam in pots of a diameter of 9 to 13 cm and covered with soil. The herbicides, formulated as emulsifiable concentrates or dusts, are applied to the surface of the covering soil in the form of aqueous dispersions or suspensions or emulsions at an application rate of 300 to 800 l of water/ha (converted), at various dosages. For further cultivation of the plants, the pots are then kept in a greenhouse under optimum conditions. The visual scoring of the damage to the harmful plants is carried out 3-4 weeks after the treatment. As shown by the results of these comparative tables, the selected compounds according to the invention have better herbicidal activity against a broad spectrum of economically important mono- and dicotyledonous harmful plants than the compounds disclosed in the prior art.
(§2) Seeds of mono- and dicotyledonous harmful plants are placed in sandy loam in cardboard pots, covered with soil and grown in the greenhouse under good growth conditions. Two to three weeks after sowing, the test plants are treated at the three-leaf stage. The compounds according to the invention, which are formulated as wettable powders or as emulsion concentrates, are sprayed at an application rate of 600 to 800 l of water/ha (converted) in a dosage stated in tables 1 to 5 onto the surface of the green plant parts. After the test plants have been left to stand in the greenhouse for 3 to 4 weeks under optimum growth conditions, the action of the compounds according to the invention is scored in comparison to compounds disclosed in the prior art. As shown by the results of these comparison tables, the selected compounds according to the invention have better herbicidal activity against a broad spectrum of economically important mono- and dicotyledonous harmful plants than the compounds disclosed in the prior art.

Polygonum convolvulus = details: scored 3-4 weeks after treatment
Excerpt: as §1, §2

Viola tricolor = details: 320 g a.i./ha; scored 3-4 weeks after treatment; comparative table 1
Excerpt: as §1, §2

Setaria viridis = details: scored 3-4 weeks after treatment
Excerpt: as §1, §2

Echinochloa crus galli = details: 80 g a.i./ha; scored 3-4 weeks after treatment; comparative table 2
Excerpt: as §1, §2

Veronica persica = details: scored 3-4 weeks after treatment
Excerpt: as §1, §2

[1] = 320 g a.i./ha, comparative table 1
[2] = 80 g a.i./ha, comparative table 2
[3] = 320 g a.i./ha, comparative table 3

SMILES	Activity against harmful plants MATIN (Matricaria inodora)	Activity against harmful plants POLCO (Polygonum convolvulus; [1])	Activity against harmful plants VIOTR (Viola tricolor)	Activity against harmful plants POLCO (Polygonum convolvulus; [2])	Activity against harmful plants SETVI (Setaria viridis; [2])	Activity against harmful plants ECHCG (Echinochloa crus galli)	Activity against harmful plants VERPE (Veronica persica; [2])	Activity against harmful plants SETVI (Setaria viridis; [3])	Activity against harmful plants VERPE (Veronica persica; [3])
CCOCCNc1c(S(C)(=O)=O)ccc(C(=O)c2cnn(CC)c2O)c1C	90%	70%	90%						
CCn1ncc(C(=O)c2ccc(S(C)(=O)=O)c(N(C)CCCOC)c2Cl)c1O				30%	0%	40%	60%		
CCOCCNc1c(S(C)(=O)=O)ccc(C(=O)c2cnn(CC)c2O)c1Cl	0%	0%	70%						
CCn1ncc(C(=O)c2ccc(S(C)(=O)=O)c(N(C)CCCOC)c2C)c1O				80%	90%	90%	90%		
CCn1ncc(C(=O)c2ccc(S(C)(=O)=O)c(NCC3CC3)c2C)c1O								100%	90%
CCn1ncc(C(=O)c2ccc(S(C)(=O)=O)c(NCC3CC3)c2Cl)c1O								80%	70%
